According to patent publication US11760756B2, “Crystalline form of a PD-1/PD-L1 inhibitor” (Incyte Corporation, priority 2020, dated 2023):

Tests used:
Type in all cases: physicochemical
[1] = water dynamic vapor sorption (DVS) analysis; conditions: for water absorbed (DVS): 80% RH and 25° C., sample pre-dried under dried nitrogen for 1 hour (Form I at 50° C., Form IV at 25° C.)
Experimental: (§1) Form I is a non-solvate and non-hydrate crystalline form. On DSC, it first undergoes dehydration at below 125° C. followed by melting at around 148-160° C. […] On TGA, approximately 2.4% weight loss is observed at below 120° C., which is mainly due to dehydration. The compound decomposes above 160° C. after melting. Like the amorphous powder of Compound 1 drug substance, this non-solvate and non-hydrate crystalline form (Form I) is hygroscopic. […] It decomposes above 160° C. after melting. During water dynamic vapor sorption (DVS) analysis of this non-solvate and non-hydrate crystalline form (Form I), approximately 6.5% of water was absorbed at 80% RH and 25° C. for this crystalline form and the sample was pre-dried at 50° C. under dried nitrogen (N2) for 1 hour before the DVS analysis. For comparison, approximately 12% of water was absorbed at 80% RH and 25° C. for the amorphous powder.
(§2) Like the amorphous powder of Compound 1 drug substance, this meta-stable non-solvate crystalline form (Form IV) is hygroscopic. During water dynamic vapor sorption (DVS) analysis of this non-solvate crystalline form (Form IV), approximately 8.2% of water was absorbed at 80% RH and 25° C. for this crystalline form and the sample was pre-dried at 25° C. under dried nitrogen (N2) for 1 hour before the DVS analysis.

[2] = Thermogravimetric Analysis (TGA), decomposition; conditions: ramp from 25° C. to 300° C. at 10° C./min
Text: X-Ray Powder Diffraction (XRPD): Compound 1 crystalline forms were characterized by XRPD. The X-Ray Powder Diffraction (XRPD) was obtained from Bruker D8 Advance ECO X-ray Powder Diffractometer (XRPD) instrument. The general experimental procedures for XRPD were: (1) X-ray radiation from copper at 1.5418 Å and LYNXEYE™ detector; (2) X-ray power at 40 kV, 25 mA; and (3) the sample powder was dispersed on a zero-background sample holder. The general measurement conditions for XRPD were: Start Angle 3 degrees; Stop Angle 30 degrees; Sampling 0.015 degrees; and Scan speed 2 degree/min. Differential Scanning calorimetry (DSC): Compound 1 crystalline forms were characterized by DSC. The DSC was obtained from TA Instruments Differential Scanning calorimetry, Discovery DSC2500 with auto sampler. The DSC instrument conditions were as follows: 20-300° C. at 10° C./min; Tzero aluminum sample pan and lid; and nitrogen gas flow at 50 mL/min. Thermogravimetric Analysis (TGA): Compound 1 crystalline forms were also characterized by TGA. The TGA was obtained from TA Instruments Thermogravimetric Analyzer, Discovery TGA5500 with auto sampler. The general experimental conditions for TGA were: ramp from 25° C. to 300° C. at 10° C./min; nitrogen purge gas flow at 25 mL/min; platinum sample holder.

[3] = solid state form stability under water, humidity and drying conditions
Experimental: as §1, §2

Row | SMILES | hygroscopicity [1] | water absorbed (DVS) [1] | crystalline form change in the solid state after the DVS analysis [1] | decomposition temperature (TGA) [2] | further results
1 | Cc1c(Nc2nccc3cc(CN4CC[C@@H](O)C4)cnc23)cccc1-c1cccc(-c2nc3cc(CN4CC[C@@H](C(=O)O)C4)cc(C#N)c3o2)c1C [Form IV, (R)-1-((7-cyano-2-(3′-(3-(((R)-3-hydroxypyrrolidin-1-yl)methyl)-1,7-naphthyridin-8-ylamino)-2,2′-dimethylbiphenyl-3-yl)benzo[d]oxazol-5-yl)methyl)pyrrolidine-3-carboxylic acid] | hygroscopic | approximately 8.2% | No crystalline form change was observed | above 140 °C | crystalline form after further drying ([3]; drying on the filter at ambient temperature for 3-6 days, residual THF approximately 0.1 wt %): remained unchanged
2 | Cc1c(Nc2nccc3cc(CN4CC[C@@H](O)C4)cnc23)cccc1-c1cccc(-c2nc3cc(CN4CC[C@@H](C(=O)O)C4)cc(C#N)c3o2)c1C [Form II, (R)-1-((7-cyano-2-(3′-(3-(((R)-3-hydroxypyrrolidin-1-yl)methyl)-1,7-naphthyridin-8-ylamino)-2,2′-dimethylbiphenyl-3-yl)benzo[d]oxazol-5-yl)methyl)pyrrolidine-3-carboxylic acid] | – | – | – | above 170 °C | –
3 | Cc1c(Nc2nccc3cc(CN4CC[C@@H](O)C4)cnc23)cccc1-c1cccc(-c2nc3cc(CN4CC[C@@H](C(=O)O)C4)cc(C#N)c3o2)c1C [Form III, (R)-1-((7-cyano-2-(3′-(3-(((R)-3-hydroxypyrrolidin-1-yl)methyl)-1,7-naphthyridin-8-ylamino)-2,2′-dimethylbiphenyl-3-yl)benzo[d]oxazol-5-yl)methyl)pyrrolidine-3-carboxylic acid] | – | – | – | above 160 °C | –
4 | Cc1c(Nc2nccc3cc(CN4CC[C@@H](O)C4)cnc23)cccc1-c1cccc(-c2nc3cc(CN4CC[C@@H](C(=O)O)C4)cc(C#N)c3o2)c1C [Form V, (R)-1-((7-cyano-2-(3′-(3-(((R)-3-hydroxypyrrolidin-1-yl)methyl)-1,7-naphthyridin-8-ylamino)-2,2′-dimethylbiphenyl-3-yl)benzo[d]oxazol-5-yl)methyl)pyrrolidine-3-carboxylic acid] | – | – | – | above 160 °C | –
5 | Cc1c(Nc2nccc3cc(CN4CC[C@@H](O)C4)cnc23)cccc1-c1cccc(-c2nc3cc(CN4CC[C@@H](C(=O)O)C4)cc(C#N)c3o2)c1C [amorphous powder, (R)-1-((7-cyano-2-(3′-((3-(((R)-3-hydroxypyrrolidin-1-yl)methyl)-1,7-naphthyridin-8-yl)amino)-2,2′-dimethyl-[1,1′-biphenyl]-3-yl)benzo[d]oxazol-5-yl)methyl)pyrrolidine-3-carboxylic acid] | hygroscopic | approximately 12% | – | above 170 °C | –
6 | Cc1c(Nc2nccc3cc(CN4CC[C@@H](O)C4)cnc23)cccc1-c1cccc(-c2nc3cc(CN4CC[C@@H](C(=O)O)C4)cc(C#N)c3o2)c1C [Form I, (R)-1-((7-cyano-2-(3′-(3-(((R)-3-hydroxypyrrolidin-1-yl)methyl)-1,7-naphthyridin-8-ylamino)-2,2′-dimethylbiphenyl-3-yl)benzo[d]oxazol-5-yl)methyl)pyrrolidine-3-carboxylic acid] | hygroscopic | approximately 6.5% | No crystalline form change was observed | above 160 °C | change in solid state form / hydrate formation ([3]; after stirring in water at ambient temperature for overnight): no change in solid state form; change in solid state form / hydrate formation ([3]; cycling from 5% RH to 95% RH and back to 5% RH at 25° C. and 5% RH interval): no change in solid state form; change in solid state form / hydrate formation ([3]; drying under dry nitrogen gas (N2) at 25° C. for one day): no change in solid state form; change in solid state form / hydrate formation ([3]; humidifying under 95% RH/25° C. for three days): no change in solid state form; thermodynamic stability of the crystalline form ([3]; under the current investigated process conditions): thermodynamically most stable crystalline form
